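Five compound concentrations were applied to cells in 96-well plates for 48 hours; endpoints were derived by simple linear interpolation of the resulting dose-response curve. GI50: concentration for 50% inhibition of growth.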 Activity calls are given as the source filed them. Cut-off read from the data, not from the text of the source: active = GI50 up to about 1.1 µM and inactive = higher.
Legend:
Experiment in all cases: DTP human tumour cell line panel, 48 h
UACC-62 = tested on: UACC-62
M14 = tested on: M14
SK-MEL-2 = tested on: SK-MEL-2
HCC 2998 = tested on: HCC 2998
SF-295 = tested on: SF-295
PC-3 = tested on: PC-3
OVCAR-5 = tested on: OVCAR-5
EKVX = tested on: EKVX
Malme-3M = tested on: Malme-3M
NCI-H226 = tested on: NCI-H226
MDA-MB-231 = tested on: MDA-MB-231
T47D = tested on: T47D
HOP-92 = tested on: HOP-92
Hs-578T = tested on: Hs-578T
BT-549 = tested on: BT-549
UACC-257 = tested on: UACC-257
SNB-75 = tested on: SNB-75
HOP-62 = tested on: HOP-62
A498 = tested on: A498

| Structure (SMILES) | GI50 (UACC-62) | GI50 (M14) | GI50 (SK-MEL-2) | GI50 (HCC 2998) | GI50 (SF-295) | GI50 (PC-3) | GI50 (OVCAR-5) | GI50 (EKVX) | GI50 (Malme-3M) | GI50 (NCI-H226) | GI50 (MDA-MB-231) | GI50 (T47D) | GI50 (HOP-92) | GI50 (Hs-578T) | GI50 (BT-549) | GI50 (UACC-257) | GI50 (SNB-75) | GI50 (HOP-62) | GI50 (A498) |
| --- | --- | --- | --- | --- | --- | --- | --- | --- | --- | --- | --- | --- | --- | --- | --- | --- | --- | --- | --- |
| CCOC(=O)c1c2c(n(-c3ccc(OC)cc3)c1C)C(=O)C(=O)c1ccccc1-2 | 1.6 µM (inactive) | 1.59 µM (inactive) | 3.27 µM (inactive) | 1.73 µM (inactive) | 1.61 µM (inactive) | 2.18 µM (inactive) | 1.88 µM (inactive) | 2.01 µM (inactive) | 0.241 µM (active) | 1.75 µM (inactive) | 1.29 µM (inactive) | 1.01 µM (active) | 1.85 µM (inactive) | 2.18 µM (inactive) | 2.02 µM (inactive) | 0.491 µM (active) | 2.16 µM (inactive) | 1.78 µM (inactive) | – |
| COC(=O)CCc1ccc2c(c1)CCC2 | > 100 µM (inactive) | > 100 µM (inactive) | > 100 µM (inactive) | > 100 µM (inactive) | > 100 µM (inactive) | > 100 µM (inactive) | > 100 µM (inactive) | – | > 100 µM (inactive) | > 100 µM (inactive) | > 100 µM (inactive) | > 100 µM (inactive) | 15.1 µM (inactive) | > 100 µM (inactive) | > 100 µM (inactive) | > 100 µM (inactive) | > 100 µM (inactive) | > 100 µM (inactive) | – |
| Cc1cc(S(=O)(=O)O)c(NC(=O)c2oc3cc(O)ccc3c(=O)c2C)cc1Cl | > 100 µM (inactive) | > 100 µM (inactive) | > 100 µM (inactive) | > 100 µM (inactive) | > 100 µM (inactive) | > 100 µM (inactive) | > 100 µM (inactive) | > 100 µM (inactive) | > 100 µM (inactive) | > 100 µM (inactive) | > 100 µM (inactive) | > 100 µM (inactive) | – | > 100 µM (inactive) | > 100 µM (inactive) | > 100 µM (inactive) | > 100 µM (inactive) | > 100 µM (inactive) | – |
| O=c1cc(-c2ccccc2)[nH]c2ccc(S)cc12 | 17.2 µM (inactive) | 25.9 µM (inactive) | – | 21 µM (inactive) | 38.5 µM (inactive) | 20.6 µM (inactive) | 86.3 µM (inactive) | – | 27.5 µM (inactive) | 16.1 µM (inactive) | 65.2 µM (inactive) | 15.1 µM (inactive) | 35.8 µM (inactive) | 26.2 µM (inactive) | 23.5 µM (inactive) | 42.5 µM (inactive) | 24.6 µM (inactive) | 70.3 µM (inactive) | – |
| Cn1c2ccccc2c(=NNc2ccc(C(=O)O)cc2)c2ccccc21 | 18.5 µM (inactive) | 16.9 µM (inactive) | 19.6 µM (inactive) | 8.38 µM (inactive) | 20.8 µM (inactive) | 14.1 µM (inactive) | 17.8 µM (inactive) | 9.25 µM (inactive) | 21.1 µM (inactive) | 17.7 µM (inactive) | 19.8 µM (inactive) | 13.4 µM (inactive) | 20.5 µM (inactive) | 18.7 µM (inactive) | 21.6 µM (inactive) | 30.1 µM (inactive) | 19.8 µM (inactive) | 18.8 µM (inactive) | – |
| O=C1C2C(c3ccccc3)NC(c3ccccc3)C1C(c1ccccc1)NC2c1ccccc1 (centres undefined) | > 100 µM (inactive) | > 100 µM (inactive) | > 100 µM (inactive) | – | > 100 µM (inactive) | > 100 µM (inactive) | > 100 µM (inactive) | > 100 µM (inactive) | > 100 µM (inactive) | > 100 µM (inactive) | > 100 µM (inactive) | > 100 µM (inactive) | > 100 µM (inactive) | > 100 µM (inactive) | > 100 µM (inactive) | > 100 µM (inactive) | > 100 µM (inactive) | > 100 µM (inactive) | > 100 µM (inactive) |

— ChEMBL document CHEMBL1201862, “PubChem BioAssay data set” (2004)
